Assay results taken from BindingDB's records for doi:10.1016/s0960-894x(02)00004-5 (Keio University, 2002).

Key:
[1] = molecular target: alpha-L-fucosidase (Bos taurus); experiment: The compound was tested for the inhibitory activity against alpha-L-Fucosidase in bovine kidney
[2] = molecular target: alpha-L-fucosidase (Bos taurus); experiment: as above; remark: listed apart in the source

Row | Ki [1] [nM] | Ki [2] [nM] | Compound
1 | 3000 | 2800 | CC1CC(O)(CN)C(O)C(O)C1O (stereo not drawn) [1-Aminomethyl-5-methyl-cyclohexane-1,2,3,4-tetraol]
2 |  | 45000 | CC1=CC(N)C(O)C(O)C1O (stereo not drawn) [6-Amino-4-methyl-cyclohex-4-ene-1,2,3-triol]
